Where two headings read alike, the source gives them in different places.
Legend:
KB-3-1 = assay: Cell survival assay (SRB), KB-3-1; assay type: cell-based, human; settings: Homo sapiens, read-out: In vitro IC50 (nM) KB-3-1
Outline: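 Cells were exposed to serially diluted compound in duplicate for 3 days. Survival was read as protein content by SRB (TCA fixation 1 hr at 4 °C, 0.04% SRB stain, dissolved in 10 mM Tris, absorbance). KB-3-1 was grown in 20% FCS. IC50 is the concentration giving 50% growth inhibition.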

KB-8-5 (MDR1+) = assay: Cell survival assay (SRB), KB-8-5 (MDR1+); settings: for IC50: Homo sapiens, MDR1, read-out: In vitro IC50 (nM) KB85
KB-V1 (MDR1++) = assay: Cell survival assay (SRB), KB-V1 (MDR1++); settings: for IC50: Homo sapiens, read-out: In vitro IC50 (nM) KBV1
[1] = KB 3-1, KB-3-1 cells (paclitaxel-sensitive parent)

Row | Structure (SMILES) | IC50 (KB-3-1; [1]) | Ratio KB85/KB (KB-8-5 (MDR1+)) | IC50 (KB-8-5 (MDR1+)) | Ratio KBV1/KB (KB-V1 (MDR1++)) | IC50 (KB-V1 (MDR1++)) | IC50 (KB-3-1; KB-3-1 cells (paclitaxel-sensitive parent)) | Ratio KB85/KB (KB-8-5 (MDR1+); ratio of IC50 in KB85 to IC50 in KB-3-1) | Ratio KBV1/KB (KB-V1 (MDR1++); ratio of IC50 in KBV1 to IC50 in KB-3-1)
1 | CCC(CC)(c1ccccc1)[C@H](NC)C(=O)N[C@H](C(=O)N(C)[C@H](/C=C(\C)C(=O)O)C(C)C)C(C)(C)C [Example 125, β,β-diethyl-N-methyl-L-phenylalanyl-N^1-[(1S,2E)-3-carboxy-1-isopropylbut-2-enyl]-N^1,3-dimethyl-L-valinamide] | 8.5 nM | 2.1 | 18 nM | 56.4 | 479 nM | – | – | –
2 | CCC(CC)(c1ccccc1)[C@@H](NC)C(=O)N[C@H](C(=O)N(C)[C@H](/C=C(\C)C(=O)O)C(C)C)C(C)(C)C [Example 126, β,β-diethyl-N-methyl-D-phenylalanyl-N^1-[(1S,2E)-3-carboxy-1-isopropylbut-2-enyl]-N^1,3-dimethyl-L-valinamide] | 18 nM | 1.3 | 23 nM | 63.3 | 1140 nM | – | – | –
3 | C/C(=C\[C@H](C(C)C)N(C)C(=O)[C@@H](NC(=O)[C@@H](N)Cc1cccc2ccccc12)C(C)(C)C)C(=O)O [Example 130, (2E,4S)-4-[((2S)-2-{[(2S)-2-Amino-3-(1-naphthyl)propanoyl]amino}-3,3-dimethylbutanoyl)(methyl)amino]-2,5-dimethyl-2-hexenoic Acid] | 60.2 nM | 1.4 | 87 nM | 49.8 | ≥ 3000 nM | – | – | –
4 | CN[C@H](C(=O)N[C@@H](C(=O)N(C)[C@H](/C=C(\C)C(=O)O)C(C)C)C(C)C)C(C)(C)c1ccccc1 [Example 131, N,β,β-trimethyl-L-phenylalanyl-N^1-[(1S,2E)-3-carboxy-1-isopropylbut-2-enyl]-N^1-methyl-D-valinamide] | 6 nM | 2.0 | 12 nM | 512.8 | ≥ 3000 nM | – | – | –
5 | CCOC(=O)/C(C)=C/[C@H](C(C)C)N(C)C(=O)[C@@H](NC(=O)[C@H](NC)C(C)(C)c1ccccc1)C(C)(C)C [Example 135, Ethyl (E,4S)-4-[((2S)-3,3-dimethyl-2-{[(2R)-3-methyl-2-(methylamino)-3-phenylbutanoyl]amino}butanoyl)(methyl)amino]-2,5-dimethyl-2-hexenoate] | 909 nM | 2.3 | 2090 nM | 2.9 | 2640 nM | – | – | –
6 | CN[C@H](C(=O)N[C@H](C(=O)N(C)[C@H](/C=C(\C)C(=O)O)Cc1ccccc1)C(C)(C)C)C(C)(C)c1ccccc1 [Example 136, (E,4S)-4-[((2S)-3,3-dimethyl-2-{[(2S)-3-methyl-2-(methylamino)-3-phenylbutanoyl]amino}butanoyl)(methyl)amino]-2-methyl-5-phenyl-2-pentenoic Acid] | 479 nM | 2.8 | 1320 nM | 6.3 | ≥ 3000 nM | – | – | –
7 | CN[C@H](C(=O)N[C@@H](Cc1ccccc1)C(=O)N(C)[C@H](/C=C(\C)C(=O)O)C(C)C)C(C)(C)c1ccccc1 [Example 137, (E,4S)-2,5-dimethyl4-[methyl((2S)-2-{[(2S)-3-methyl-2-(methylamino)-3-phenylbutanoyl]amino}-3-phenylpropanoyl)amino]-2-hexenoic Acid] | 934 nM | 1.7 | 1580 nM | 3.2 | ≥ 3000 nM | – | – | –
8 | CC(C)C[C@H](N)C(=O)N[C@H](C(=O)N[C@H](CC(C)C(=O)O)C(C)C)C(C)(C)C (stereo partly drawn) [Example 138, (4R)4-[((2S)-2-{[(2S)-2-amino4-methylpentanoyl]amino}-3,3-dimethylbutanoyl)amino]-2,5-dimethylhexanoic Acid] | – | – | 1510 nM | – | ≥ 3000 nM | 692 nM | 2.2 | 4.3
9 | CN[C@H](C(=O)N[C@H](C(=O)N(C)[C@H](/C=C(\C)C(=O)O)C(C)C)C(C)(C)C)C(C)(C)C [Example 140, N,3-dimethyl-L-valyl-N^1-[(1S,2E)-3-carboxy-1-isopropyl-2-butenyl]-N^1,3-dimethyl-L-valinamide] | 114 nM | 1.6 | 181 nM | 26.4 | ≥ 3000 nM | – | – | –
10 | CN[C@H](C(=O)N[C@H](C(=O)N(C)[C@H](/C=C(\C)C(=O)O)C(C)C)C(C)(C)C)C(C)(C)c1c[nH]c2ccccc12 [Example 141, N,β,β-trimethyl-L-tryptophyl-N^1-[(1S,2E)-3-carboxy-1-isopropyl-2-butenyl]-N^1,3-dimethyl-L-valinamide] | 0.695 nM | 2.4 | 1.65 nM | 139.4 | 96.9 nM | – | – | –
11 | CN[C@H](C(=O)N[C@H](C(=O)N(C)[C@H](/C=C(\C)C(=O)N[C@@H](CCSC)C(=O)O)C(C)C)C(C)(C)C)C(C)(C)c1ccccc1 [Example 145, N,β,β-trimethyl-L-phenylalanyl-N 1-((1S,2E)4-{[(1S)-1-carboxy-3-(methylthio)propyl]amino}-1-isopropyl-3-methyl-4-oxobut-2-enyl)-N 1,3-dimethyl-L-valinamide] | 131 nM | 12.2 | 1600 nM | 22.9 | > 3000 nM | – | – | –
12 | CN[C@H](C(=O)N[C@H](C(=O)N(C)[C@H](/C=C(\C)C(=O)O)C(C)C)C(C)(C)C)C(C)(C)c1ccc(/C=C/c2ccccc2)cc1 [Example 146, N,β,β-trimethyl-4-[(E)-2-phenylvinyl]-L-phenylalanyl-N^1-[(1S,2E)-3-carboxy-1-isopropylbut-2-enyl]-N^1,3-dimethyl-L-valinamide] | 1.3 nM | 2.4 | 3.1 nM | 53.8 | 70 nM | – | – | –
13 | CN[C@@H](C(=O)N[C@H](C(=O)N(C)[C@H](/C=C(\C)C(=O)O)C(C)C)C(C)(C)C)C(C)(C)c1ccc(/C=C/c2ccccc2)cc1 [Example 147, N,β,β-trimethyl4-[(E)-2-phenylvinyl]-D-phenylalanyl-N^1-[(1S,2E)-3-carboxy-1-isopropylbut-2-enyl]-N^1,3-dimethyl-L-valinamide] | 11.6 nM | 1.7 | 20 nM | 53.4 | 620 nM | – | – | –
14 | CN[C@H](C(=O)N[C@@H](C(=O)N(C)[C@H](/C=C(\C)C(=O)O)C(C)C)C(C)(C)F)C(C)(C)c1ccccc1 [Example 148, N,β,β-trimethyl-L-phenylalanyl-N^1-[(1S,2E)-3-carboxy-1-isopropylbut-2′enyl]-3-fluoro-N^1-methyl-D-valinamide] | 88 nM | 2.2 | 193 nM | 34.1 | > 3000 nM | – | – | –
15 | CN[C@H](C(=O)N[C@H](C(=O)N(C)[C@H](/C=C(\C)C(=O)O)C(C)C)C(C)(C)F)C(C)(C)c1ccccc1 [Example 149, N,β,β-trimethyl-L-phenylalanyl-N^1-[(1S,2E)-3-carboxy-1-isopropylbut-2-enyl]-3-fluoro-N^1-methyl-L-valinamide] | 1.6 nM | 2.2 | 3.5 nM | – | 117 nM | – | – | –
16 | CN[C@H](C(=O)N[C@H](C(=O)N(C)[C@H](/C=C(\C)C(=O)O)C(C)C)C(C)(C)C)C(C)(C)SCc1ccc(OC)cc1 [Example 150, 3-[(4-methoxybenzyl)thio]-N-methyl-L-valyl-N^1-[(1S,2E)-3-carboxy-1-isopropylbut-2-enyl]-N^1,3-dimethyl-L-valinamide] | 5.2 nM | 2.1 | 11.3 nM | 36.5 | 190 nM | – | – | –
17 | C/C(=C\[C@H](C(C)C)N(C)C(=O)[C@@H](NC(=O)[C@@H](N1CCCC1)C(C)(C)c1ccccc1)C(C)(C)C)C(=O)O [Example 152, (2E,4S)-2,5-dimethyl-4-(methyl{3-methyl-N-[(2S)-3-methyl-3-phenyl-2-pyrrolidin-1-ylbutanoyl]-L-valyl}amino)hex-2-enoic Acid] | 75 nM | 2.1 | 158 nM | 40 | > 3000 nM | – | – | –
18 | C/C(=C\[C@H](C(C)C)N(C)C(=O)[C@@H](NC(=O)[C@@H](NCCO)C(C)(C)c1ccccc1)C(C)(C)C)C(=O)O [Example 153, N-(2-hydroxyethyl)-β,β-dimethyl-L-phenylalanyl-N^1-[(1S,2E)-3-carboxy-1-isopropylbut-2-enyl]-N^1,3-dimethyl-L-valinamide] | 183 nM | 3.4 | 616 nM | 16.4 | > 3000 nM | – | – | –
19 | CN[C@H](C(=O)N[C@H](C(=O)N(C)[C@H](/C=C(\C)C(=O)O)C(C)C)C(C)(C)C)[C@H](C)c1ccccc1 [Example 154, (βR)-N,β-dimethyl-L-phenylalanyl-N^1-[(1S,2E)-3-carboxy-1-isopropylbut-2-enyl]-N^1,3-dimethyl-L-valinamide] | 438 nM | 1.3 | 584 nM | 6.8 | > 3000 nM | – | – | –
20 | CN[C@H](C(=O)N[C@H](C(=O)N(C)[C@H](/C=C(\C)C(=O)O)C(C)C)C(C)(C)C)C(C)(C)c1cccc(C(C)=O)c1 [Example 155, 3-acetyl-N,β,β-trimethyl-L-phenylalanyl-N^1-[(1S,2E)-3-carboxy-1-isopropylbut-2-enyl]-N^1,3-dimethyl-L-valinamide] | 1.8 nM | 3.2 | 5.8 nM | 206 | 370 nM | – | – | –
